Experimental findings from article PMC8001506 (Marine Drugs, 2021) are described below.

Common to all, as to test: cell-based
In one experiment the target is rat α3β2 nAChR (Rattus norvegicus, UniProt P04757+P12390).
The target in another experiment is rat α6/α3β2β3 nAChR (Rattus norvegicus, UniProt P04757+P12390+P12391+P43143).
For a further experiment, the target named is rat α7 nAChR (Rattus norvegicus, UniProt Q05941). Format: cell-based.
The next experiment addresses rat α4β2 nAChR (Rattus norvegicus, UniProt P09483+P12390). Format: cell-based.
The next experiment addresses rat α4β4 nAChR (Rattus norvegicus, UniProt P09483+P12392). It counts as cell-based.
A further experiment addresses rat α3β4 nAChR (Rattus norvegicus, UniProt P04757+P12392). It counts as cell-based.
The next experiment concerns the target rat α2β2 nAChR (Rattus norvegicus, UniProt P12389+P12390). Format: cell-based.
Another experiment addresses rat α2β4 nAChR (Rattus norvegicus, UniProt P12389+P12392). Format: cell-based.
The target of the next experiment is human α9α10 nAChR (Homo sapiens, UniProt Q9GZZ6+Q9UGM1). Format: cell-based.

Molecules are shown by their SMILES. Where a SMILES comes first, the peptide text is derived from it. Bridges are numbered along the chain shown (N, C = ends).

Chain of rat α4β2 nAChR (P09483 31-630 limits assumed): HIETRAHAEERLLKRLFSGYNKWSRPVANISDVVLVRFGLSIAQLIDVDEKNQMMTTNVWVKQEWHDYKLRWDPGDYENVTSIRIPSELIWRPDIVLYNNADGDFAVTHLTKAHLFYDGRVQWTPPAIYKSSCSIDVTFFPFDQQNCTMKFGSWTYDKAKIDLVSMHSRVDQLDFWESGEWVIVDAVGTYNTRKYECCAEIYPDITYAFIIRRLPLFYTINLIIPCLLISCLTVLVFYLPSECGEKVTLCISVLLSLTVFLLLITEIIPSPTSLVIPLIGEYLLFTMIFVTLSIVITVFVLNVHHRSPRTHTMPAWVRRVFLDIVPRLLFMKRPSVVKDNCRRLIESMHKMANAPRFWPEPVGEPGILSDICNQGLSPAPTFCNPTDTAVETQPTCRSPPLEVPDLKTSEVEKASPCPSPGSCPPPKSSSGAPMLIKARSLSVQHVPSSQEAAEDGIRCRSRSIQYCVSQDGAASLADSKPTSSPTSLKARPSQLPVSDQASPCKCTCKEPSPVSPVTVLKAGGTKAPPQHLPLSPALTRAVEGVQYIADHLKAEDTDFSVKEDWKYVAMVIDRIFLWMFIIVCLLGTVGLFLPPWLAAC
Chain of rat α4β2 nAChR (P12390 25-500 limits assumed): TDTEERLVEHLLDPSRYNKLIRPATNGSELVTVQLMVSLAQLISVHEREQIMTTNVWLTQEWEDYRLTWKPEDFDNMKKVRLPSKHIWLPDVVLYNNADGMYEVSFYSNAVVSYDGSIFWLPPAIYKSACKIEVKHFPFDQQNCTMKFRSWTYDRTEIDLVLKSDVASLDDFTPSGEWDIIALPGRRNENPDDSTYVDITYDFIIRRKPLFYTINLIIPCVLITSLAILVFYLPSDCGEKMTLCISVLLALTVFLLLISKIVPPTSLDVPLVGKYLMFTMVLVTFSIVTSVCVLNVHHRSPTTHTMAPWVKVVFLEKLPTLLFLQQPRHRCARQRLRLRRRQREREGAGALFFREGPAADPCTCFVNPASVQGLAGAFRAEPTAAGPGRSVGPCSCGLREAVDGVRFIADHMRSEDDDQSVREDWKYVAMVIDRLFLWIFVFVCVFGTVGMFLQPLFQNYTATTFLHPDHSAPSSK
Chain of rat α4β4 nAChR (P09483 31-630 limits assumed): as the sequence (P09483 31-630 limits assumed) above
Chain of rat α4β4 nAChR (P12392 21-495 limits assumed): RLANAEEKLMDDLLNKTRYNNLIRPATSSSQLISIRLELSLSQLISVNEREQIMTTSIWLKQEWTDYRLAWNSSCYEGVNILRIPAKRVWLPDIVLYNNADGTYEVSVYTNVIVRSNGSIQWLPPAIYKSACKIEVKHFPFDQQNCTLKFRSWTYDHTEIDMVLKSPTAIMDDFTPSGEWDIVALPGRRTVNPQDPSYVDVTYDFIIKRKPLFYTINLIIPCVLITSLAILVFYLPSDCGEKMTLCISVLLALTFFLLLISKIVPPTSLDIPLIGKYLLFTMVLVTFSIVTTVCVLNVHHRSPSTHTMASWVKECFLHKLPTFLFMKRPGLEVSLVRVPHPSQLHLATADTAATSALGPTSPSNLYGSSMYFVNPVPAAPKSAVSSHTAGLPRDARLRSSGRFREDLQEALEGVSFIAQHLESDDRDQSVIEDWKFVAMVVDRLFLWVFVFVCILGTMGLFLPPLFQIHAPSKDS
Chain of rat α3β4 nAChR (P04757 26-499 limits assumed): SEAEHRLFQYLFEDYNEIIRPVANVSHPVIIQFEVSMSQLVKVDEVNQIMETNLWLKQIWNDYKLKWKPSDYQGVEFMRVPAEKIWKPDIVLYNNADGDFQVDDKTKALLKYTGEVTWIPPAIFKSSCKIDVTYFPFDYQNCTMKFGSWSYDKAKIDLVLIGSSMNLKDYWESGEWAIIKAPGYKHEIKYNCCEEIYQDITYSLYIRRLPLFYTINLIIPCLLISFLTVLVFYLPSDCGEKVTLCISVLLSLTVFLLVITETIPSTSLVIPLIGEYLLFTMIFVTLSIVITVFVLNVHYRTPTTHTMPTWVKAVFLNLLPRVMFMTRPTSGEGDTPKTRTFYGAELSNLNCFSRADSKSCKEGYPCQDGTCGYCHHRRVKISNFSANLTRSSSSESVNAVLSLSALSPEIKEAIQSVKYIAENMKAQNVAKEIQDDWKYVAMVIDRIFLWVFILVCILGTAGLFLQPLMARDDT
Chain of rat α3β4 nAChR (P12392 21-495 limits assumed): as the sequence (P12392 21-495 limits assumed) above
Chain of rat α3β2 nAChR (P04757 26-499 limits assumed): as the sequence (P04757 26-499 limits assumed) above
Chain of rat α3β2 nAChR (P12390 25-500 limits assumed): as the sequence (P12390 25-500 limits assumed) above
Chain of rat α2β2 nAChR (P12389 28-511 limits assumed): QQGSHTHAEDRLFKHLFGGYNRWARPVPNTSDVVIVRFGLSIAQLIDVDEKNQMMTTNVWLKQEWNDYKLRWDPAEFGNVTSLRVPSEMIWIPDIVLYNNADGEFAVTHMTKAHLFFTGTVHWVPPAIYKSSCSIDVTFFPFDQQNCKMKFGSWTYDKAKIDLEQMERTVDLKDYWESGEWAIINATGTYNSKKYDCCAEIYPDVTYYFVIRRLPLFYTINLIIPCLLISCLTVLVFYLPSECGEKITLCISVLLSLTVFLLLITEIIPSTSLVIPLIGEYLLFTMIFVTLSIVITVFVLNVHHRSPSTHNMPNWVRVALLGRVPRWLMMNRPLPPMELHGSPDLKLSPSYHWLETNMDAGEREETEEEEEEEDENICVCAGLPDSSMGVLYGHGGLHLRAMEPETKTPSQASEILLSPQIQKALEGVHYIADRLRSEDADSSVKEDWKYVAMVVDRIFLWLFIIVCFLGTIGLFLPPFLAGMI
Chain of rat α2β2 nAChR (P12390 25-500 limits assumed): as the sequence (P12390 25-500 limits assumed) above
Chain of rat α2β4 nAChR (P12389 28-511 limits assumed): as the sequence (P12389 28-511 limits assumed) above
Chain of rat α2β4 nAChR (P12392 21-495 limits assumed): as the sequence (P12392 21-495 limits assumed) above
Chain of human α9α10 nAChR (Q9UGM1 26-479 limits assumed): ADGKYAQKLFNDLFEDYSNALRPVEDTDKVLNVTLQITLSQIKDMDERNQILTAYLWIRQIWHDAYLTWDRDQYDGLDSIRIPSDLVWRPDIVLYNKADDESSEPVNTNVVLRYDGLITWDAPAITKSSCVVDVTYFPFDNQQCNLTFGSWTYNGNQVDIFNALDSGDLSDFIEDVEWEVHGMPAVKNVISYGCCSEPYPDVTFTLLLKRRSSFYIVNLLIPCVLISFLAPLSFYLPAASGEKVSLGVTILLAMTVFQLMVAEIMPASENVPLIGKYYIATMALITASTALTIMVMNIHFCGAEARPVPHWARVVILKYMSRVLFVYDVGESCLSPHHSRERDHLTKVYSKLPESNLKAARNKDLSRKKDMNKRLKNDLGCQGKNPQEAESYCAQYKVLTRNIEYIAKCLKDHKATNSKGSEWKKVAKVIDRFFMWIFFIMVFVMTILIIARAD
Chain of human α9α10 nAChR (Q9GZZ6 25-450 limits assumed): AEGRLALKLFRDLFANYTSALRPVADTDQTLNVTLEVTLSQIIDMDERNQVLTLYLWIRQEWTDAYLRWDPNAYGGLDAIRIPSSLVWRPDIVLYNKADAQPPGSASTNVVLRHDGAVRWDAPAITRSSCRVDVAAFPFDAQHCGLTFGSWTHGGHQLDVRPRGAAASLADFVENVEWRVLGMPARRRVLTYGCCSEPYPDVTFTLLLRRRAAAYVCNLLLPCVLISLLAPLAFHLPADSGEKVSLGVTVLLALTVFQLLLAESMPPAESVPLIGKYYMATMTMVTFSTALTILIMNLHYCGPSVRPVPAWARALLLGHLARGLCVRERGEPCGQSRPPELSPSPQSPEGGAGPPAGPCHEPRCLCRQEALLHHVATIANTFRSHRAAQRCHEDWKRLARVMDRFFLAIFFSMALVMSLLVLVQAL
Chain of rat α7 nAChR (Q05941 23-502 limits assumed): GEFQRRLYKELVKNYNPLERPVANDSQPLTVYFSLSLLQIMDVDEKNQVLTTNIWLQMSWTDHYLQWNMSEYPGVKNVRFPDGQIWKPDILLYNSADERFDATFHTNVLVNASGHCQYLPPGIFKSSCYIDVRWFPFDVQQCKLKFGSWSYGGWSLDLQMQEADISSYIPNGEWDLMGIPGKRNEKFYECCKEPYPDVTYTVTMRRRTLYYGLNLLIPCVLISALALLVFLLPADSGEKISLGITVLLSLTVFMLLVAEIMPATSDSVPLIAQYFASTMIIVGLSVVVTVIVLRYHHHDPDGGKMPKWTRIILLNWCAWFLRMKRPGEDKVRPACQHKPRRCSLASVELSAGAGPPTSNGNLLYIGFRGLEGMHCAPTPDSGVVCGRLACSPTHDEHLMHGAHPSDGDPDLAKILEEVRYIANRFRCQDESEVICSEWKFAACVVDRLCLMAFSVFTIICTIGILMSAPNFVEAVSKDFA

For the compound `CC(C)C[C@@H]1NC(=O)[C@H](CC(=O)O)NC(=O)[C@H](CO)NC(=O)[C@H](Cc2c[nH]cn2)NC(=O)[C@H](CCC(N)=O)NC(=O)[C@H](C(C)C)NC(=O)[C@H](CCC(N)=O)NC(=O)[C@@H]2CSSC[C@H](NC(=O)[C@@H](NC(=O)[C@H](CC(=O)O)NC(=O)[C@H](C)NC(=O)CNC(=O)[C@H](CO)NC(=O)[C@H](C)N)[C@@H](C)O)C(=O)N[C@@H](CSSC[C@@H](C(=O)O)NC1=O)C(=O)N[C@@H](CO)C(=O)N[C@@H](CC(N)=O)C(=O)N1CCC[C@H]1C(=O)N[C@@H](C)C(=O)N2` [CIC] (H-ASGADTCCSNPACQVQHSDLC-OH; disulfide 7-13, 8-21), the half-maximal inhibitory concentration (IC50) against rat α3β2 nAChR is 3.51 µM; against rat α6/α3β2β3 nAChR, 1.03 µM; at rat α7 nAChR it was more than 10 µM; on rat α4β2 nAChR, more than 10 µM; on rat α4β4 nAChR it was more than 10 µM; at rat α3β4 nAChR, more than 10 µM. Moreover, the half-inhibitory concentration (IC50) at rat α2β2 nAChR, against rat α2β4 nAChR and against human α9α10 nAChR was more than 10 µM throughout.
